According to EPA's ToxValDB 9.5:

Test system: Rattus norvegicus
Settings: oral
[1] = short-term, duration: 28 days, gavage, M, Sprague-Dawley, Clinical Observation: Reddish urine Soft stool DiarrheaSpontaneous locomotion decrease, Incomplete eyelid opening + Functional Observational…
[2] = short-term, duration: 28 days, gavage, F, Sprague-Dawley, Food Consumption: decrease + Hematology: RBC decrease, Hct decrease1000 Hgb decrease1000 Plt increase, PT increase, APTT increase, Ret …
[3] = short-term, duration: 28 days, gavage, M, Sprague-Dawley, Food Consumption: decrease + Hematology: RBC decrease, Hct decrease1000 Hgb decrease1000 Plt increase, PT increase, APTT increase, Ret …
[4] = subchronic, gavage, M, Sprague-Dawley, Body Weight Changes: decrease, Gain decrease + Food Consumption: decrease + Hematology: RBC decrease, Hgb decrease, Hct decrease, Ret …
[5] = subchronic, gavage, M, Sprague-Dawley, Clinical Observation: Salivation (transient) + Functional Observational Battery: Salivation (transient)Defecation increase(transient) + …

## CC(C)(c1cc(Br)c(OCCO)c(Br)c1)c1cc(Br)c(OCCO)c(Br)c1 [Tetrabromobisphenol A bis(2-hydroxyethyl) ether]
subchronic, gavage, M, Sprague-Dawley, Clinical Observation: Soft stool R + Hematology: Plt increase + Blood Chemistry: BUN increase + Necropsy: Cecum-Distention
  NOEL: 40 mg/kg-day

## CC(C)CCCCCOC(=O)C[S][Sn]([CH3])([S]CC(=O)OCCCCCC(C)C)[S]CC(=O)OCCCCCC(C)C [Methyltin tris(isooctyl mercaptoacetate)]
subchronic, duration: 90 days, diet, M, Wistar, Blood Chemistry: BUN increase + Relative Organ Weight: Thymus increase, Kidney increase + Histopathology: Kidney: Dilatation, tubule, cystic…
  NOAEL: 48 mg/kg-day

## CC1=C(C)C(=O)C(C(CCCCCC(=O)O)c2ccccc2)=C(C)C1=O (racemic)
subchronic, duration: 13 weeks, gavage, M/F, Fischer 344, Body Weight Changes: decrease + Food Consumption: decrease + Hematology: RBC decrease, HCT decrease, HGB decrease, MCV increase, MCH …
  NOAEL: 20 mg/kg-day

## Cn1c(=O)c2[nH]cnc2n(C)c1=O [Theophylline]
chronic, duration: 14 weeks, diet, F, Fischer 344, Absolute Organ Weight: Right kidney increase, Lung increase + Relative Organ Weight: Right kidney increase, Lungs increase + Histopathology…
  NOEL: < 75 mg/kg-day
chronic, duration: 14 weeks, diet, M/F, Fischer 344, Absolute Organ Weight: Right kidney increase, Lung increase + Relative Organ Weight: Right kidney increase, Lungs increase + Histopathology…
  NOEL: < 78 mg/kg-day
chronic, duration: 14 weeks, gavage, M/F, Fischer 344, Deaths + Absolute Organ Weight: Liver increase, Thymus decrease + Relative Organ Weight: Right kidney increase, Liver increase, Uterus …
  NOEL: < 37.5 mg/kg-day

## COc1ccc(CCNCC(O)COc2cccc(C)c2)cc1OC.Cl (stereo not given) [Bevantolol hydrochloride]
chronic, duration: 91 days, gavage, M/F, CD, Deaths + Clinical Observation: Salivation Sedation Ptosis Prone position Lateral position Crouching position Convulsion Incontinence of …
  NOEL: 60 mg/kg-day

## COC(=O)C1=C(C)NC(C)=C(C(=O)OCC(C)=O)C1c1ccccc1[N+](=O)[O-] (stereo not given) [Aranidipine]
chronic, duration: 91 days, gavage, M/F, Wistar, Deaths + Clinical Observation: Prone position.0 (Dead animal) Hypothermia.0 (Dead animal) Rough respiration Locomotor activity decrease …
  NOEL: 3 mg/kg-day

## CCCCCCCCC [Nonane]
subchronic, duration: 90 days, gavage, F, Fischer 344, Absolute Organ Weight: Liver increase, Lung increase, Adrenal increase, Spleen decrease, Ovary decrease + Histopathology: Alimentary tract: …
  NOAEL: 100 mg/kg-day

## CC(O[Si](C)(C)C(C)(C)C)C1CNC1=O (stereo not given) [3-(1-{[tert-Butyl(dimethyl)silyl]oxy}ethyl)azetidin-2-one]
short-term, duration: 28 days, gavage, M/F, Clinical Observation: Salivation + Blood Chemistry: TP increase, T-CHO increase, TG increase, Glu decrease, Ca increase + Organ Weight: …
  NOEL: 8 mg/kg-day

## Clc1ccc(OCCOCc2ccc(COCCOc3ccc(Cl)cc3)cc2)cc1
short-term, duration: 28 days, gavage, M/F, Body Weight Changes: Body weight gain decrease + Food Consumption: decrease + Blood Chemistry: ALB increase, A/G increase + Organ Weight: …
  NOEL: 8 mg/kg-day

## Cc1cccc(C(C)(C)C)c1O [2-tert-Butyl-6-methylphenol]
subchronic, gavage, M, Sprague-Dawley, Hematology: Ret increase, PT increase, APTT increase + Blood Chemistry: GOT increase, GPT increasegamma-GTP increase, Cho increase + …
  NOEL: 8 mg/kg-day

## CN(C)CCCCl.Cl [Dimethylaminopropyl chloride hydrochloride]
subchronic, drinking water, M/F, Fischer 344, Deaths + Body Weight Changes: decrease + Blood Chemistry: TP decrease Alb decrease Bile acid increase + Histopathology: Nose-Goblet cell, …
  NOEL: < 6.25 mg/kg-day

## c1ccc2c(c1)CCCC2 [Tetralin]
short-term, duration: 28 days, gavage, M/F, Wistar, Clinical Observation: Squatting position Closed eyes Reduced activity LethargyTonic convulsion Absence of auditory startle reflex + Body …
  NOAEL: 15 mg/kg-day

## O=C1CCCCC1C1=CCCCC1 (stereo not given) [Cyclohexanone, 2-(1-cyclohexen-1-yl)-]
subchronic, gavage, M, Sprague-Dawley, Clinical Observation: Salivation + Body Weight Changes: decrease + Blood Chemistry: gamma-GTP increase, TP increase, Alb increase, T-Cho …
  NOEL: 40 mg/kg-day

## Nc1c(Br)cc(Br)c2c1C(=O)c1ccccc1C2=O [1-Amino-2,4-dibromoanthraquinone]
[1]
  NOAEL: < 200 mg/kg-day
  NOEL: < 200 mg/kg-day
subchronic, duration: 13 weeks, diet, F, Fischer 344, Deaths + Clinical Observation: Lethargy Emaciation StaggeredHunched posture + Body Weight Changes: decrease + Food Consumption: decrease + …
  NOEL: < 170 mg/kg-day
subchronic, duration: 13 weeks, diet, M/F, Fischer 344, Deaths + Clinical Observation: Lethargy Emaciation StaggeredHunched posture + Body Weight Changes: decrease + Food Consumption: decrease + …
  NOEL: < 240 mg/kg-day

## CC(C)(C)OOC(=O)c1ccccc1 [tert-Butyl perbenzoate]
subchronic, gavage, M/F, Fischer 344, Deaths + Body Weight Changes: decrease + Food Consumption: decrease + Absolute Organ Weight: Spleen decrease, Forestomach increase>60 …
  NOEL: < 30 mg/kg-day

## CC=CC(=O)N(CC)c1ccccc1C [Crotamiton]
short-term, duration: 28 days, gavage, F, Sprague-Dawley, Clinical Observation: Salivation + Body Weight Changes: Weight gain decrease, increase + Food Consumption: increase + Urinalysis: Occult …
  NOEL: 60 mg/kg-day
short-term, duration: 28 days, gavage, M, Sprague-Dawley, Clinical Observation: Salivation + Body Weight Changes: Weight gain decrease, increase + Food Consumption: increase + Urinalysis: Occult …
  NOEL: 12 mg/kg-day

## O=C1c2ccccc2-c2cccc3cccc1c23 [Benz[de]anthracen-7-one]
[2]
  LOAEL: 60 mg/kg-day
  LOEL: 60 mg/kg-day
  NOAEL: 15 mg/kg-day
  NOEL: 15 mg/kg-day
[3]
  LOAEL: 60 mg/kg-day
  LOEL: 60 mg/kg-day
  NOAEL: 15 mg/kg-day
  NOEL: 15 mg/kg-day

## CN1CCN(C)C1=O [1,3-Dimethyl-2-imidazolidinone]
subchronic, gavage, M, Sprague-Dawley, Body Weight Changes: Gain decrease(trend) + Blood Chemistry: TG increase, T-Cho increase(trend)TP decrease, R a1-glb decrease, R beta-glb …
  NOEL: 20 mg/kg-day

## O=C(O)C(F)(F)C(F)(F)C(F)(F)C(F)(F)C(F)(F)C(F)(F)C(F)(F)C(F)(F)C(F)(F)C(F)(F)C(F)(F)C(F)(F)C(F)(F)C(F)(F)C(F)(F)C(F)(F)C(F)(F)F [Perfluorooctadecanoic acid]
[4]
  LOEL: 200 mg/kg-day
  NOEL: 40 mg/kg-day

## BrC=Cc1ccccc1 [(2-Bromovinyl)benzene]
short-term, duration: 28 days, gavage, M/F, CD(SD), Deaths + Clinical Observation: Salivation + Urinalysis: Volume increase, Osmotic pressure decrease, Small epidermal cell + Blood Chemistry: …
  NOEL: 30 mg/kg-day

## CC(CN1c2ccccc2Sc2ccccc21)N(C)C.Cl (stereo not given) [Promethazine hydrochloride]
subchronic, duration: 13 weeks, gavage, M/F, Fischer 344, Deaths + Clinical Observation: Hunched posture Labored respiration Abnormal respiratory sounds + Body Weight Changes: decrease + Absolute …
  NOEL: 3.7 mg/kg-day

## CC(C)C[C@H]1C(=O)N2CCC[C@H]2[C@]2(O)O[C@](NC(=O)[C@@H]3C=C4c5cccc6[nH]cc(c56)C[C@H]4N(C)C3)(C(C)C)C(=O)N12 [Ergocryptine]
subchronic, diet, F, Hsd/Ola/SD, Clinical Observation: Hyperkinesia, dirty hair Hunchback position Aggression + Body Weight Changes: decrease + Food Consumption: decrease + …
  NOEL: 0.36 mg/kg-day
subchronic, diet, M/F, Hsd/Ola/SD, Clinical Observation: Hyperkinesia, dirty hair Hunchback position Aggression + Body Weight Changes: decrease + Food Consumption: decrease + …
  NOEL: 4 mg/kg-day

## CC(=O)Nc1cc(Nc2nc(Nc3ccc(N=Nc4cccc(S(=O)(=O)[O-])c4)c(NC(C)=O)c3)nc(N3CCOCC3)n2)ccc1N=Nc1cccc(S(=O)(=O)[O-])c1.[Na+].[Na+]
short-term, duration: 28 days, gavage, M/F, Urinalysis: Bil increase + Blood Chemistry: T-Bil increase, UA increase
  NOEL: 200 mg/kg-day

## CC1CCCCC1 [Methylcyclohexane]
[5]
  LOEL: 250 mg/kg-day
  NOEL: 62.5 mg/kg-day

## Nc1ccc(O)c(C(=O)O)c1 [5-Aminosalicylic acid]
chronic, duration: 91 days, gavage, F, Sprague-Dawley, Deaths + Urinalysis: Volume increase, Specific gravity decrease, Occult blood Na decrease, K decrease, Cl decrease + Hematology: RBC …
  NOAEL: 100 mg/kg-day
chronic, duration: 91 days, gavage, M, Sprague-Dawley, Deaths + Urinalysis: Volume increase, Specific gravity decrease, Occult blood Na decrease, K decrease, Cl decrease + Hematology: RBC …
  NOAEL: 100 mg/kg-day

## Nc1ccc(Cc2ccc(N)c(Cl)c2Cl)c(Cl)c1Cl [Benzenamine, 4,4'-methylenebis(2,3-dichloro-]
short-term, duration: 28 days, gavage, M/F, Sprague-Dawley, Deaths + Hematology: WBC increase + Blood Chemistry: Alpha 1-globirin, level decrease, K increasemg/kg/ , TG increase/ + Relative Organ …
  NOEL: 100 mg/kg-day

## CC(C)(C)c1ccc(O)c(O)c1 [4-tert-Butylcatechol]
subchronic, diet, M/F, Fischer 344, Body Weight Changes: decrease + Food Consumption: decrease + Hematology: Hct decrease, Hgb decrease, RBC decrease + Blood Chemistry: ALT …
  NOEL: < 75 mg/kg-day

## C[C@H](CCc1ccccc1)NC[C@H](O)c1ccc(O)c(C(N)=O)c1.Cl [(R,R)-Dilevalol hydrochloride]
subchronic, duration: 90 days, gavage, M/F, Sprague-Dawley, Clinical Observation: Salivation + Body Weight Changes: body weight gain decrease + Urinalysis: Volume increase, Specific gravity decrease…
  NOEL: 60 mg/kg-day

## CCn1cc(C(=O)O)c(=O)c2ccc(C)nc21 [Nalidixic acid]
subchronic, duration: 13 weeks, diet, M/F, Fischer 344, Deaths + Body Weight Changes: decrease + Food Consumption: decrease + Absolute Organ Weight: Liver increase + Relative Organ Weight: Liver …
  NOEL: 96 mg/kg-day

## Nc1cc(S(=O)(=O)[O-])cc2cc(S(=O)(=O)[O-])c(N=Nc3ccc(-c4ccc(N=Nc5c(S(=O)(=O)[O-])cc6cc(S(=O)(=O)[O-])cc(N)c6c5[O-])c([O-])c4)cc3[O-])c([O-])c12.[Cu+2].[Cu+2].[Na+].[Na+].[Na+].[Na+] [C.I. Direct Blue 218]
subchronic, duration: 13 weeks, diet, F, Fischer 344, Body Weight Changes: decrease + Food Consumption: decrease + Hematology: Hct decrease, Hgb decrease + Blood Chemistry: ALT increase, , SDH …
  NOEL: 200 mg/kg-day
subchronic, duration: 13 weeks, diet, M/F, Fischer 344, Body Weight Changes: decrease + Food Consumption: decrease + Hematology: Hct decrease, Hgb decrease + Blood Chemistry: ALT increase, , SDH …
  NOEL: < 288 mg/kg-day

## Nc1cc(OCCOc2ccccc2)n[nH]1 [3-(2-Phenoxyethoxy)-1H-pyrazol-5-amine]
short-term, duration: 28 days, gavage, M/F, Deaths + Clinical Observation: Salivation Locomotor activity decrease, Sedation Urinary incontinence + Body Weight Changes: Body weight …
  NOEL: 40 mg/kg-day

## C[Si](O[Si](C)(C)C)O[Si](C)(C)C [1,1,1,3,5,5,5-Heptamethyltrisiloxane]
subchronic, duration: 35 days, gavage, M, Wistar, Clinical Observation: Salivation / No description about sex and dosages Pushing the head through the bedding material / No description …
  NOAEL: 50 mg/kg-day
